# Active and inactive are the calls of the source. The calls are words filed in the database; no cut-off is given here.
# What was measured:
# mTORC1 (Homo sapiens) [1] = target: T1, mTORC1 (Homo sapiens) (UniProt P42345+Q8N122+Q9BVC4); test: Inhibition of mTORC1 in human PF-382 cells assessed as reduction in c-Myc expression at 5 uM measured after 24 hrs in presence of bortezomib by Western blot analysis; format: cell-based
# mTORC1 (Homo sapiens) [2] = target: T1, mTORC1 (Homo sapiens); test: Inhibition of mTORC1 in human PF-382 cells assessed as reduction in 4E-BP1 phosphorylation at 5 uM measured after 24 hrs in presence of bortezomib by Western blot analysis; format: cell-based
# mTORC1 (Homo sapiens) [3] = target: T1, mTORC1 (Homo sapiens); test: Inhibition of mTORC1 in human LY10 cells assessed as reduction in 4E-BP1 phosphorylation at 3 uM measured after 24 hrs in presence of bortezomib by Western blot analysis; format: cell-based
# LY7 = test: Induction of apoptosis in human LY7 cells assessed as increase in cleaved-PARP expression at 3 uM measured after 24 hrs in presence of bortezomib by Western blot analysis; format: functional, cell-based
# SLL = test: Induction of apoptosis in human SLL cells assessed as increase in cleaved-PARP expression at 5 uM measured after 24 hrs in presence of bortezomib by Western blot analysis; format: functional, cell-based
# OCI-Ly10 = test: Induction of apoptosis in human LY10 cells assessed as increase in caspase-3/7 activation at 1 to 3 uM measured after 24 hrs in presence of bortezomib; format: functional, cell-based; details: dose 1-3 µM
# [4] = target: Myc proto-oncogene protein (Homo sapiens) (UniProt P01106); test: Inhibition of c-Myc in human LY7 cells assessed as reduction in eIF4B expression at 3 uM incubated for 24 hrs in presence of bortezomib by Western blot analysis; format: cell-based
# [5] = target: Myc proto-oncogene protein (Homo sapiens) (UniProt P01106); test: Inhibition of c-Myc in human LY7 cells assessed as reduction in E2F1 expression at 3 uM incubated for 24 hrs in presence of bortezomib by Western blot analysis; format: cell-based
# [6] = target: T2, Casein kinase I isoform epsilon (Homo sapiens, UniProt P49674); test: Inhibition of recombinant human full-length N-terminal GST-tagged CK1epsilon expressed in baculovirus infected Sf9 insect cells at 50 uM using casein as substrate measured after 60 mins by ADP-glo kinase assay relative to control
# [7] = target: T2, Casein kinase I isoform epsilon; test: Inhibition of CK1epsilon in human LY7 cells assessed as reduction in CK1epsilon autophosphorylation at 25 uM preincubated for 1 hr followed by addition of PP2A inhibitor calyculin A and measured after 15 to 60 mins by Western blot analysis; format: cell-based; details: time lower 75.0 min, time upper […]
# mTORC1 (Homo sapiens) [8] = target: T1, mTORC1 (Homo sapiens); test: Inhibition of mTORC1 in human SLL cells assessed as reduction in 4E-BP1 phosphorylation at 5 uM measured after 24 hrs in presence of carfilzomib by Western blot analysis; format: cell-based
# mTORC1 (Homo sapiens) [9] = target: T1, mTORC1 (Homo sapiens); test: Inhibition of mTORC1 in human LY10 cells assessed as reduction in 4E-BP1 phosphorylation at 3 uM measured after 24 hrs in presence of carfilzomib by Western blot analysis; format: cell-based
# [10] = target: T3, Phosphatidylinositol 4,5-bisphosphate 3-kinase catalytic subunit delta isoform (Homo sapiens) (UniProt O00329); test: Inhibition of PI3Kdelta in human Jurkat cells assessed as reduction in AKT phosphorylation at S473 residue measured after 4 hrs; format: cell-based; details: dose 10-10000 nM
# T3 sequence (whole entry): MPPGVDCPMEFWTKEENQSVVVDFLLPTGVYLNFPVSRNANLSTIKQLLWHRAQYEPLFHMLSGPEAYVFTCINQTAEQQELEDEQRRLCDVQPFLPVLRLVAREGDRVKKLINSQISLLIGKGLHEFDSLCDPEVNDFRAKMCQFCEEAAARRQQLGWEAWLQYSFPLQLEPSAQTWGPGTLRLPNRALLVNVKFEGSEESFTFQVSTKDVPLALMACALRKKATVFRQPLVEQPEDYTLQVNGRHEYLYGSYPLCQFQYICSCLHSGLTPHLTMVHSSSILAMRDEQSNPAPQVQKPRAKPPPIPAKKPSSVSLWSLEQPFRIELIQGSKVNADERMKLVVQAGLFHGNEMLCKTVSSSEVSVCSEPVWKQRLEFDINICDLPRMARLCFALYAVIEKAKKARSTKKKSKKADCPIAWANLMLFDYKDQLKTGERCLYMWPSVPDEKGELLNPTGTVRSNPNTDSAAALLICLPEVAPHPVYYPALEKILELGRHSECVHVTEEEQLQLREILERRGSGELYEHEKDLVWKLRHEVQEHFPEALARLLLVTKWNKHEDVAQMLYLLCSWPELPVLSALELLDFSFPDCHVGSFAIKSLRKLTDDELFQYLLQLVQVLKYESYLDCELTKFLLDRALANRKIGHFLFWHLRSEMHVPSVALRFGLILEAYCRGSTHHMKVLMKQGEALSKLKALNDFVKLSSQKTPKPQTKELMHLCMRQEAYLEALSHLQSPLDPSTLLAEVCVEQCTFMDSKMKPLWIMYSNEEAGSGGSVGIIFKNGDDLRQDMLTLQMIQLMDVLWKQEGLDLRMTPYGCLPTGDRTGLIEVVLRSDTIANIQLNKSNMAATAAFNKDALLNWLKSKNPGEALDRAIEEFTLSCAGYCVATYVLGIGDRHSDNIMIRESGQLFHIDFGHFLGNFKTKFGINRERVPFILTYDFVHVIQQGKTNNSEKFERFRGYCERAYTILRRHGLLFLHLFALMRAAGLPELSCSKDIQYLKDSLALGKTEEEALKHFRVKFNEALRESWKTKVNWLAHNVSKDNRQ
# mTORC1 (Homo sapiens) [11] = target: T1, mTORC1 (Homo sapiens); test: Inhibition of mTORC1 in human LY7 cells assessed as reduction in c-Myc mRNA expression at 3 uM measured after 24 hrs in presence of carfilzomib; format: cell-based
# mTORC1 (Homo sapiens) [12] = target: T1, mTORC1 (Homo sapiens); test: Inhibition of mTORC1 in human OCILY7 cells transfected with c-Myc-expressing plasmid (M+) assessed as reduction in endogenous c-Myc expression at 3 to 5 uM incubated for 24 hrs in presence of carfilzomib by Western blot analysis; format: cell-based; details: dose 3-5 µM
# OCI-Ly7 [13] = test: Cytotoxicity against human OCILY7 cells transfected with c-Myc-expressing plasmid (M+) assessed as reduction in cell viability at 3 to 5 uM incubated for 24 hrs in presence of carfilzomib by cell-titer glo assay; format: functional, cell-based; details: dose 3-5 µM
# OCI-Ly7 [14] = test: Cytotoxicity against human OCILY7 cells transfected with empty vector assessed as reduction in cell viability at 3 to 5 uM incubated for 24 hrs in presence of carfilzomib by cell-titer glo assay; format: functional, cell-based; details: dose 3-5 µM
# mTORC1 (Homo sapiens) [15] = target: T1, mTORC1 (Homo sapiens); test: Inhibition of mTORC1 in human NCI-H929 cells transduced with an eIF4E-overexpressing plasmid assessed as reduction in c-Myc expression at 5 uM incubated for 24 hrs in presence of carfilzomib by Western blot analysis; format: cell-based
# [16] = target: Myc proto-oncogene protein (Homo sapiens) (UniProt P01106); test: Inhibition of c-Myc in human LY7 cells assessed as reduction in eIF4B expression at 3 uM incubated for 24 hrs in presence of carfilzomib by Western blot analysis; format: cell-based
# OCILY7 = test: Inhibition of PI3Kdelta/CK1epsilon in human OCILY7 cells transfected with c-Myc-expressing plasmid (M+) assessed as reduction in c-Myc expression at 7.5 to 25 uM measured after 24 hrs by Western blot analysis; format: cell-based; details: dose 7.5-25 µM
# T1 sequence (Q8N122 whole entry, looked up, other chains not shown): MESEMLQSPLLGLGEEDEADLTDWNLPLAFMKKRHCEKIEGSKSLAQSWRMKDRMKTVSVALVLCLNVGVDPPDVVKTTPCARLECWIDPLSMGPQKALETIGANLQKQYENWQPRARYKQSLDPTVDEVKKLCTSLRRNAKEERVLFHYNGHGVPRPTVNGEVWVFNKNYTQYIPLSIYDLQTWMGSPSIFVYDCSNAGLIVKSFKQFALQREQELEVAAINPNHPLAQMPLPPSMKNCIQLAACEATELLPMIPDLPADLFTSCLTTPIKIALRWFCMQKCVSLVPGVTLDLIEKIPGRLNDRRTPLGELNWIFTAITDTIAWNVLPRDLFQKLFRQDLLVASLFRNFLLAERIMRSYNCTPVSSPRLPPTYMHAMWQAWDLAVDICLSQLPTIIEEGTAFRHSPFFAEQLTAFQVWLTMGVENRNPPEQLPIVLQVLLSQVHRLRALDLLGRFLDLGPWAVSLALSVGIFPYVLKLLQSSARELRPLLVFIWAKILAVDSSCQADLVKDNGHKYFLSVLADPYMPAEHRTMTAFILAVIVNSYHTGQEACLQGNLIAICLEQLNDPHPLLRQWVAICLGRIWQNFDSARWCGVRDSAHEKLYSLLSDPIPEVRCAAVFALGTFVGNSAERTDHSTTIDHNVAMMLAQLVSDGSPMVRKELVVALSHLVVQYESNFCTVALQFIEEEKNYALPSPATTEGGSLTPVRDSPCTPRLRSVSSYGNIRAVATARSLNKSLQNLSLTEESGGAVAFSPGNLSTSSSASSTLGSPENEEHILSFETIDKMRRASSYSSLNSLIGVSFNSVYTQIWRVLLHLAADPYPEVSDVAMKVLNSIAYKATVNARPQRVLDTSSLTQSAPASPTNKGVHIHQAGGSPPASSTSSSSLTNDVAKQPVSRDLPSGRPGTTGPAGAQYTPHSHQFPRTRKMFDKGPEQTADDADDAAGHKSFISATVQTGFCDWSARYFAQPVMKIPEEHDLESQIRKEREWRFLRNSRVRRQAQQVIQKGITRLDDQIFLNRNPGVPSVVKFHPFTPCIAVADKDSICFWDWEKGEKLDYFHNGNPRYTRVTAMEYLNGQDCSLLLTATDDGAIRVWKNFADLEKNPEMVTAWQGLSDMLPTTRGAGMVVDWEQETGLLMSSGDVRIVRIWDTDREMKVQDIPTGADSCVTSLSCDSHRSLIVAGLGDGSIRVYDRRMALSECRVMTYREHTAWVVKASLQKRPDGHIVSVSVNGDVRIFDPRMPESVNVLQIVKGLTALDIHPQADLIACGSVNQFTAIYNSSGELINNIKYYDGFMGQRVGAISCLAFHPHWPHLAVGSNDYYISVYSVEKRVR
# T1 sequence (Q9BVC4 whole entry, looked up, other chains not shown): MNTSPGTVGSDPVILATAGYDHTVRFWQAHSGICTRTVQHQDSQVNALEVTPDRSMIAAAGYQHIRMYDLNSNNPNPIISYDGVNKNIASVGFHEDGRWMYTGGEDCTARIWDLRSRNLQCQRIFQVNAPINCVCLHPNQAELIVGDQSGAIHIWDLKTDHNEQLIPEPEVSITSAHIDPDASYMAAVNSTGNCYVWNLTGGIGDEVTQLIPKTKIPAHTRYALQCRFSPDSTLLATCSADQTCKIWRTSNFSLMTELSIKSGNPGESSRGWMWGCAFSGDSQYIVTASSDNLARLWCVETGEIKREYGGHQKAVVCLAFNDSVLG
# Sequence of Myc proto-oncogene protein (Homo sapiens) (P01106 whole entry, canonical isoform): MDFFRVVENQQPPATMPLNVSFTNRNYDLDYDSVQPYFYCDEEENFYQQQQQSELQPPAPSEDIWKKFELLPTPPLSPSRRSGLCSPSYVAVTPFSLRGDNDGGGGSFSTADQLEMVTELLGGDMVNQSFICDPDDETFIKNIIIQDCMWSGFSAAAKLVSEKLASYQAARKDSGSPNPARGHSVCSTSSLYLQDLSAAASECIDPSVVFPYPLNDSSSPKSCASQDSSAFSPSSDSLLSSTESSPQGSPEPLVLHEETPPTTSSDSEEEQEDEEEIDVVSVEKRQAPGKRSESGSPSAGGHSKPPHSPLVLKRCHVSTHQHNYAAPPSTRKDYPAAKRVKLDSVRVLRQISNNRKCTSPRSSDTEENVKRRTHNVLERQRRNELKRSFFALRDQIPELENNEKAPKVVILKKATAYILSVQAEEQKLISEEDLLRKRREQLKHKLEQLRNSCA
# T2 sequence (P49674 whole entry, looked up, canonical isoform): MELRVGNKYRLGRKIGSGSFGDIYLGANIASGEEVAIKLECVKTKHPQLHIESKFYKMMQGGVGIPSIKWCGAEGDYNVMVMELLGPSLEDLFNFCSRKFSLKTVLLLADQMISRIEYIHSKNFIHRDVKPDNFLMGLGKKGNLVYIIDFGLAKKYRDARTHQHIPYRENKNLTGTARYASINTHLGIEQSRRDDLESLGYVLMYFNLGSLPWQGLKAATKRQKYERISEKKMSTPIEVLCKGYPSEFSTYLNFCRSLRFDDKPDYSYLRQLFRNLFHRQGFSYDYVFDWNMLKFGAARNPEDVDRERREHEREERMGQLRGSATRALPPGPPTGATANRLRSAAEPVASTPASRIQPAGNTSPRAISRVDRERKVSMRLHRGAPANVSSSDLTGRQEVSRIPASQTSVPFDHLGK
Compound,inhibition (mTORC1 (Homo sapiens) [1]),inhibition (mTORC1 (Homo sapiens) [2]),inhibition (mTORC1 (Homo sapiens) [3]),Activity (LY7),Activity (SLL),Activity (OCI-Ly10),inhibition [4],inhibition [5],inhibition [6],inhibition [7],inhibition (mTORC1 (Homo sapiens) [8]),inhibition (mTORC1 (Homo sapiens) [9]),inhibition [10],inhibition (mTORC1 (Homo sapiens) [11]),inhibition (mTORC1 (Homo sapiens) [12]),Activity (OCI-Ly7 [13]),Activity (OCI-Ly7 [14]),inhibition (mTORC1 (Homo sapiens) [15]),inhibition [16],inhibition (OCILY7)
CC[C@H](Nc1ncnc2[nH]cnc12)c1nc2cccc(F)c2c(=O)n1-c1ccccc1,inactive,inactive,inactive,Active,Active,Active,inactive,inactive,< 50%,inactive,,,,,,,,,,
CC(C)Oc1ccc(-c2nn([C@@H](C)c3oc4ccc(F)cc4c(=O)c3-c3cccc(F)c3)c3ncnc(N)c23)cc1F [UMBRALISIB],,,,,,,,,,,Active,Active,Dose-Dependent Effect,inactive,inactive,inactive,Active,inactive,Active,inactive

# From ChEMBL document CHEMBL5715954, “Silencing c-Myc translation as a therapeutic strategy through targeting PI3Kδ and CK1ε in hematological malignancies” (Blood, 2017)
